In one assay the target is T1, PDK1 (Homo sapiens, UniProt O15530).
T1 construct: made in house; host or cells: HEK293 (GST fusion) or Sf9 insect cells (His form)
T1 sequence (O15530 1-359): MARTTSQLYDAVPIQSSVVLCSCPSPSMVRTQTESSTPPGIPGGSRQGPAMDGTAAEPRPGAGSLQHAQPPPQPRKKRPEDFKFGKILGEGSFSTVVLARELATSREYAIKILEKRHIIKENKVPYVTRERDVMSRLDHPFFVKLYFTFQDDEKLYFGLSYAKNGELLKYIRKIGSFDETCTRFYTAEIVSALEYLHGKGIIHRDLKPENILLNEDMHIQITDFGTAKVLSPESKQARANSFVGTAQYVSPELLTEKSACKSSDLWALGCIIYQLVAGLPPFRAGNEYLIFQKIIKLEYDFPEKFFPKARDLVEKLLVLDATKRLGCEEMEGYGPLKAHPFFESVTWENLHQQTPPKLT
Description: PDK1 activity assay with T308tide and [γ32P]ATP. Format: biochemical. Conditions: isolated catalytic domain. As to the method: The PDK1 activity assay using T308tide as a substrate was performed essentially as previously described ([18], [28], [54]). In brief, the assay was performed in a 20 μl format containing 50 mM Tris pH 7.5, 0.05 mg/ml BSA, 0.1% ß-mercaptoethanol, 10 mM MgCl2, 100 μM [γ^32P]ATP (5-50 cpm/pmol), 0.003% Brij, 150-500 ng PDK1, and T308tide (0.3 mM) at room temperature. The assay was performed in 96 well plated and stopped by the addition of 5 μl of 0.1 % phosphoric acid. 4 μl aliquots were spotted on p81 phosphocellulose papers (Whatmann) using ep motion 5070 (Eppendorf). The phosphocellulose papers were washed in 0.01% phosphoric acid, dried, and exposed using PhosphoImager (FLA-9000 Starion). Data were analyzed with ImageQuant software (Fujifilm). Activity measurements were performed in technical duplicates or triplicates with less than 10% difference between replicates. Experiments were repeated at least twice. The activity measurements of PDK1 towards GS-022 and GS-023 were performed similarly, with the GS-peptides replacing T308tide at the indicated concentrations. GS-022 and GS-023 have features consistent with the loose characteristics disclosed for the peptide Ser/Thr 07, ((R/K)1-3(X)0-2 (S/T) (X)0-2(R/K)1-3, where X is any residue) used by the commercial “PDK1 Direct” assay.

Another assay deals with T2, PDK1_1-556 (Homo sapiens, UniProt O15530).
T2 construct: effect of HYG8 on the thermal stability (ΔTm) of PDK1_1-556 (H) and PDK1_50-359 (I); His (N); made in house; host or cells: Sf9 insect cells (baculovirus)
T2 sequence (O15530 1-556): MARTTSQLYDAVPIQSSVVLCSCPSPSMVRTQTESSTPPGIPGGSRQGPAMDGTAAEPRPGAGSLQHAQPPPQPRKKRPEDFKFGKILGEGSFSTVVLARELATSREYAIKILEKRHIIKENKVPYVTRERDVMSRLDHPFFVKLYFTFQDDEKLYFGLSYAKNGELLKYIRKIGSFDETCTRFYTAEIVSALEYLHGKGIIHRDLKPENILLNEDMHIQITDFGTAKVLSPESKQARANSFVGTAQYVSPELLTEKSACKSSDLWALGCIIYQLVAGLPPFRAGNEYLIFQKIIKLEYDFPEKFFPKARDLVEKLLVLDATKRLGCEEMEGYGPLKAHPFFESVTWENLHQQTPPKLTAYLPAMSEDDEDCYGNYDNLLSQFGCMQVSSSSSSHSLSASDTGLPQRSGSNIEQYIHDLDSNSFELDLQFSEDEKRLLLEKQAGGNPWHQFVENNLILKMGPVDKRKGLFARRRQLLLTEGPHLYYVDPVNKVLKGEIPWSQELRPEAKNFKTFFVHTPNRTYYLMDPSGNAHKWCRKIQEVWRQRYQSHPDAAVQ
Description: Differential scanning fluorimetry, thermal stability of PDK1_1-556. Format: binding. The method, then: (§1) The thermal stability of PDK1 was assessed by monitoring the unfolding of PDK1 by the increase in the fluorescence of SYPRO Orange (Invitrogen) using a real-time PCR device (StepOnePlus, Applied Biosystems and BioRad CFX96) following a previously described protocol ([70]). The reactions were performed in a final volume of 10 μl in white 96-well PCR microtiter plates (Greiner) and contained 1 μM PDK1, 10 mM HEPES (pH 7.5), 150 mM NaCl, 1/1000 SYPRO Orange and 1 mM dithiothreitol. For valsartan, the assay buffer was modified to exclude NaCl. PIFtide or compounds (at a final DMSO concentration of 1%) were added to this reaction mixture. The temperature gradient was performed in steps of 0.3 °C in the range from 25 to 70 °C. To calculate the Tm values, data were exported to GraphPad Prism and curves fitted to a Boltzmann sigmoidal equation with an acceptable confidence interval of 95%. Statistical analysis was performed with Infostat software (http://www.infostat.com.ar) and GraphPad Prism by first verifying a normal distribution of pooled residuals (Shapiro-Wilks test) and homogeneity of variance (F test), and then performing a one-way ANOVA followed by the post hoc comparisons test indicated in each figure legend.

Another assay concerns the target T3, PDK1_50-359 (Homo sapiens, UniProt O15530).
T3 construct: His (N); made in house; host or cells: insect cells (stated for the crystallography batch)
T3 sequence (O15530 50-359): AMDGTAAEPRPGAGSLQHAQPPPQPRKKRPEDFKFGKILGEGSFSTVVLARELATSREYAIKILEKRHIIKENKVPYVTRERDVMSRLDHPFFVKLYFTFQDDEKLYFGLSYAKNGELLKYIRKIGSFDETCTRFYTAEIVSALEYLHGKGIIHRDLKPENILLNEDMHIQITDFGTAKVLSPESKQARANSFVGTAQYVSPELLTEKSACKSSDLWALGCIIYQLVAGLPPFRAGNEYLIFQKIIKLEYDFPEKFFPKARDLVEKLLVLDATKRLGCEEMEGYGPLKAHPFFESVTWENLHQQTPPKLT
Description: Differential scanning fluorimetry, thermal stability of PDK1_50-359 (catalytic domain). Format: binding. The method, then:
as §1

In assay [1] the target is T4, His-PDK1_1-556 and GST-PDK1_360-556 (Homo sapiens, UniProt O15530).
T4 construct: made in house; host or cells: Sf9 insect cells (His-PDK1_1-556); HEK293 cells (GST-PDK1_360-556)
T4 sequence (O15530 1-556): T2 sequence (O15530 1-556)
Description: AlphaScreen PDK1 dimerization assay His-PDK1_1-556 / GST-PDK1_360-556. Format: binding. Conditions: Prestwick library screen hits; read-out: IC50, inhibition of PDK1 dimerization. The method, then:
(§2) The AlphaScreen® assay was performed following the general guidelines from the manufacturer (Perkin Elmer) ([29]). In short, the assay was performed in a final volume of 25 μl in white 384-well microtiter plates (Greiner) in a standard buffer containing 50 mM Tris-HCl (pH 7.4), 100 mM NaCl, 2 mM DTT, 0.01% (v/v) Tween-20 and 0.1% (w/v) BSA, with the addition of 5 μl of beads (anti-GST coated acceptor beads and streptavidin-coated donor beads; nickel chelate-coated acceptor beads and streptavidin-coated donor beads; or nickel chelate-coated acceptor beads and GSH-coated donor beads, 20 μg/ml final concentrations for each bead type). AlphaScreen assays for His-tagged proteins and GST-fusion proteins were performed using nickel chelate-coated acceptor beads and GSH-coated donor beads; alphascreen assays for His-tagged proteins and biotinylated molecules were performed using nickel chelate-coated acceptor beads and streptavidin-coated donor beads; alphascreen assays for GST-fusion proteins and biotinylated molecules were performed using anti-GST coated acceptor beads and streptavidin-coated donor beads (Perkin Elmer).
The conditions for each AlphaScreen assay were identified in cross-titration experiments for each interaction to choose the ideal pair of concentrations within the linear range of the interactions. […] His-PDK1 and GST-fusion protein in the presence or absence of the different compounds were incubated in the dark for 60 min at room temperature and the emission of light from the acceptor beads was measured in an EnVision reader (Perkin Elmer) or Spark plate reader (Tecan). […]

The target in another assay is T5, GST-PDK1_1-556 (Homo sapiens, UniProt O15530).
T5 construct: made in house; host or cells: HEK293 cells (transient transfection of pEBG2T); peptide synthesized by Pepscan
T5 sequence (O15530 1-556): T2 sequence (O15530 1-556)
Description: AlphaScreen GST-PDK1_1-556 / biotin-PIFtide interaction. Format: binding. The method, then: as §2
The interaction between GST-PDK1_1-556 and biotin-PIFtide was performed as described previously ([29], [32]) in the standard buffer, but the bead concentration was lowered to 15 μg/ml.

As for `CCCCC(=O)N(Cc1ccc(-c2ccccc2-c2nnn[nH]2)cc1)[C@H](C(=O)O)C(C)C` [valsartan, reference compound], the “effect on activity of the isolated catalytic domain of PDK1 toward T308tide” value at PDK1 is given as “modestly increased”. The ΔTm at 50 µM on PDK1_1-556 (50 μM, buffer without NaCl) worked out at 2.2 °C. Also, the “effect on temperature stability of the PDK1-HYG8 complex” value on PDK1_1-556 (in presence of HYG8) is recorded as “did not further enhance”. The “effect on thermal stability of PDK1_50-359 (catalytic domain)” value at PDK1_50-359 is “less stabilization”. Besides, in assay [1], the half-maximal inhibitory concentration (IC50) was found to be 32 µM. Further, at GST-PDK1_1-556, the “effect on PDK1-PIFtide interaction” value was “inhibited”.
